Data reported in patent US9606106B2, “NMR-based metabolite screening platform” (THE CHILDREN'S MEDICAL CENTER CORPORATION, priority 2012, dated 2017).

System: BPLER cells
Assay: cell migration assay (dual-chamber with small pores)
Format: cell-based, human
Conditions: cells transfected with siRNAs against NANS or CMAS, supplemented with NANA
Method: However, NANA is incorporated on the cell surface of several proteins involved in cell adhesion, and loss of NANA was suspected to affect cell motility. Using a cell migration assay, cells were cultured in a dual-chamber containing small pores at the bottom of the top chamber, malignant cells (especially those with metastatic potential) are able to migrate through the pores and form colonies. As expected, shown in FIG. 12 BPLER have an increased migration rate as compared to HMLER cells due to their increased turmorigenic properties. […] To confirm NANA expression directly influences motility, a rescue experiment was performed in which cells transfected with siRNAs against NANS or CMAS were supplemented NANA. […] Monitoring NANA expression could predict the metastatic potential of a cell. In addition both NANS/CMAS are novel key targets to manipulate migration and metastasis.

CC(=O)N[C@H]1[C@H]([C@H](O)[C@H](O)CO)OC(O)(C(=O)O)C[C@@H]1O (stereo partly shown) [NANA, N-acetylneuraminic acid]
rescue of migration phenotype: partially restore
